This note sets out measurements from US20250057910A1, “Application of Polypeptide in Preparation of Product for Preventing or Treating Skin Injury Diseases” (Sichuan Gooddoctor Panxi Pharmaceutical Co., Ltd., priority 2021, published 2025).

Ends that are not written are not given here.

Test [1] deals with Transgenic zebrafish with vascular green fluorescence. Put plainly: Angiogenesis in zebrafish with simvastatin-induced microvessel deficiency. The following applies: intravenous injection 12.5, 25.0 and 50.0 mg/mL, 10 nL, 2 days, vs model control. Format: in vivo. The method, then: Experimental animals: Transgenic zebrafish with vascular green fluorescence, raised in water for culturing fish at 28° C. (water quality: 200 mg of instant dissolving sea salt being added to every 1 L of water made by reverse osmosis, with a conductivity of 450-550 μS/cm, a pH of 6.5-8.5 and a hardness of 50-100 mg/L CaCO3), at the age of 1 day post fertilization (1 dpf). The animals were provided by the fish breeding center of Hangzhou Hunter Biotechnology Co., Ltd. with the experimental animal use license number of SYXK (Zhejiang) 2012-0171, and the breeding management complied with the requirements of international AAALAC certification (certification number: 001458).
Experimental method: 1 dpf transgenic zebrafish with vascular green fluorescence were randomly selected and placed in a 6-well plate, with 30 fish per well (per experimental group). […] Treatment was performed at 28° C. for 2 days, 10 zebrafish were randomly selected in each experimental group and placed under a fluorescence microscope to take photos, the data were analyzed and collected using NIS-Elements D 3.20 advanced image processing software, the subintestinal vascular area and the number of subintestinal vascular branches were analyzed, and the statistical analysis results of these indexes were used to evaluate the efficacy of the samples of promoting angiogenesis.

The test system of test [2] is RSC96 cells (Rat Schwann cells). Put plainly: Proliferation of RSC96 cells (CCK-8). The following applies: 48 hours, 0% serum medium, FIG. 4. In kind it is cell-based. The method, then: Experimental method: Rat Schwann cells (RSC96 cells) were adjusted to a concentration of 1.0*10^5 to 5.0*10^5/mL for passaging, and cultured at 37° C. and 5% CO2 for 24-36 hours for the biological activity detection. The cells were digested by trypsin, collected, prepared into a concentration of 5*10^4/mL with a serum-free medium, seeded in a 96-well cell culture plate with 100 μL per well, i.e., […], and cultured overnight at 37° C. and 5% CO2.
The polypeptide was dissolved in PBS solution and prepared into a stock solution with a concentration of 400 ug/ml. The polypeptide stock solution was prepared with 0% serum medium to test concentrations as the experimental groups; and for the control group, the same volume of 0% serum medium without drugs was added. For all the groups, 4 duplicate wells were incubated at 37° C. and 5% CO2 for 48 hours. The CCK-8 was used to detect cell proliferation: the old medium was removed, the serum-free medium containing 10% CCK-8 was added to each well, and absorbances were measured at 450 nm by microplate reader after incubation in an incubator for 2 hours.

The test system of test [3] is Balb-3T3 cells (mouse embryo fibroblasts). Put plainly: Proliferation of Balb-3T3 cells (CCK-8). In kind it is cell-based. To be noted: 48 hours, 2.5% FBS maintenance medium, FIG. 3. Here is the method: Experimental method: Mouse embryo fibroblasts (Balb-3T3 cells) were cultured in 10% serum medium at 37° C. and 5% CO2, the culture fluid was changed every 1-2 days, and the cell concentration was controlled to be 4*10^6 cells/mL for passaging. The cells were collected and prepared into a concentration of 3* 10^4 cells/mL with 2.5% FBS maintenance medium, seeded into a 96-well cell culture plate with 100 uL per well, i.e., 3000 cells/well, and cultured at 37° C. and 5% CO2 to be adherent.
The polypeptide was dissolved in 2.5% FBS maintenance medium and prepared into a stock solution with a concentration of 1 mg/mL. The polypeptide stock solution was prepared with 2.5% FBS maintenance medium to test concentrations as the experimental groups; in the same manner, recombinant human basic fibroblast growth factor FGF (50 ng/mL), and recombinant human platelet derived growth factor PDGF-BB (30 ng/mL) were prepared and added as positive control; and for the blank control group, the same volume of 2.5% FBS maintenance medium was added. For all the groups, 5 duplicate wells were incubated at 37° C. and 5% CO2 for 48 hours. CCK-8 was used to detect cell proliferation: the serum-free medium containing 10% CCK-8 was added to each well, and absorbances were measured at 450 nm by microplate reader after incubation in an incubator for 2 hours.

Another test concerns SD rats. The experiment in a line: Healing of full-layer skin defect wound in SD rats. Format: in vivo, rat. To be noted: for Wound healing rate: SD rats, topical once a day, polypeptide 50 μg/cm^2, comparative polypeptide 1 41.90 μg/cm^2, comparative polypeptide 2 52.66 μg/cm^2, Mean ± SD, n = 8. The method, then:
Experimental animals: SD male rats, SPF grade, 6 weeks old, weighing 180-220 g, from Beijing Vital River Laboratory Animal Technology Co., Ltd., with the experimental animal quality certification number of NO.110011220109610345, and the experimental animal use license number of SCXK (Beijing) 2021-0011.
Experimental method: SD rats were randomly divided into […] based on the body weight with 8 animals in each group, namely, vehicle group, the polypeptide group (50 μg/cm^2), comparative polypeptide 1 group (41.90 μg/cm^2) and comparative polypeptide 2 group (52.66 μg/cm^2). The amino acid sequence of comparative polypeptide 1 is Glu-Pro-Val-Pro-Leu; and the amino acid sequence of comparative polypeptide 2 is Pro-Ala-Ala-Glu-Pro-Val-Pro-Leu-Val-Lys-Gln-Glu.
After each experimental rat was anesthetized by intraperitoneal injection of 2% pentobarbital sodium (0.2 mL/100 g), a 2 cm^2 full-layer skin defect wound was prepared at each of both sides of the back spine. After hemostasis of the wound, the corresponding drug was administered at the wound locally by group. Each group was administered once a day, with a dosed volume of 72 μL/wound each time, for 14 consecutive days. After the administration, the wound was covered with a sterile vaseline gauze (5 cm*5 cm), and bandaged with multi-layer sterile gauzes. After the wound surgery, the wound was photographed, and the wound area was recorded as the baseline value (the wound was recorded as Day0). During the administration period, the areas of the wounds were photographed and measured 3 times a week, and the healing was observed.

As for PAAEPVPL [polypeptide], in test [1] (FIG. 6), the “Subintestinal vascular area (area of regenerated blood vessels)” value was “significantly promote the increase of the subintestinal vascular area”. The “Number of subintestinal vascular branches” value in test [1] (FIG. 7) is “the increase of the number of subintestinal vascular branches”. Moreover, the “Proliferation-promoting effect on the RSC96 cell line” value in test [2] is reported as “significant effect of promoting proliferation”. Moreover, the “Proliferation-promoting effect on the Balb-3T3 cell line” value in test [3] is recorded as “significant effect of promoting proliferation”. Moreover, in the test on SD rats (50 μg/cm^2, days 3-10 after surgery, vs vehicle group), the “Healing rate of full-layer skin defect wound (statement in words)” value is “higher healing rate with a significant difference”. Further, the Wound healing rate in the test with SD rats (Day 0 (baseline)) amounted to 0.00 ± 0.00%; in the test with SD rats (Day 3), 29.70 ± 19.21 %; in the test on SD rats (Day 5), 52.21 ± 11.54 %; in the test with SD rats (Day 7), 74.12 ± 5.95 %; in the test with SD rats (Day 10) it was 94.55 ± 2.40 %.
